# According to ChEMBL document CHEMBL1201862, “PubChem BioAssay data set” (2004):
#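 Following 48 hours of exposure in 96-well plates, responses at five concentrations were used to interpolate endpoints linearly. GI50 is the concentration that inhibits growth by half.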 Active and inactive are the calls of the source. Cut-off read from the data, not from the text of the source: active = GI50 up to about 1.1 µM and inactive = higher.
# Legend:
# Test in all cases: DTP human tumour cell line panel, 48 h
# 786-0 = tested on: 786-0
# A498 = tested on: A498
# HCT-116 = tested on: HCT-116
# HCT-15 = tested on: HCT-15
# HOP-62 = tested on: HOP-62
# HOP-92 = tested on: HOP-92
# HT-29 = tested on: HT-29
# IGROV-1 = tested on: IGROV-1
# KM12 = tested on: KM12
# MDA-N = tested on: MDA-N
# NCI-H226 = tested on: NCI-H226
# OVCAR-3 = tested on: OVCAR-3
# OVCAR-4 = tested on: OVCAR-4
# RPMI-8226 = tested on: RPMI-8226
# RXF 393 = tested on: RXF 393
# SF-295 = tested on: SF-295
# SK-MEL-28 = tested on: SK-MEL-28
# SK-OV-3 = tested on: SK-OV-3
# UACC-257 = tested on: UACC-257
Structure (SMILES),GI50 (786-0),GI50 (A498),GI50 (HCT-116),GI50 (HCT-15) [µM],GI50 (HOP-62),GI50 (HOP-92),GI50 (HT-29),GI50 (IGROV-1),GI50 (KM12),GI50 (MDA-N),GI50 (NCI-H226),GI50 (OVCAR-3),GI50 (OVCAR-4),GI50 (RPMI-8226),GI50 (RXF 393),GI50 (SF-295),GI50 (SK-MEL-28),GI50 (SK-OV-3),GI50 (UACC-257)
COc1c2c(cc3nc4ccccc4nc13)CC[C@H](NC(C)=O)c1cc(=O)c(SC)ccc1-2,0.506 µM (active),7.62 µM (inactive),0.46 µM (active),2.84,11.9 µM (inactive),5.75 µM (inactive),1.04 µM (active),0.236 µM (active),0.273 µM (active),0.18 µM (active),1.08 µM (active),0.785 µM (active),4.27 µM (inactive),0.538 µM (active),2.74 µM (inactive),1.17 µM (inactive),12.7 µM (inactive),5.28 µM (inactive),1.59 µM (inactive)
COC(=O)/C(C)=N/N=C(\S)SC,35.9 µM (inactive),> 100 µM (inactive),31.6 µM (inactive),36.7,> 100 µM (inactive),> 100 µM (inactive),17.3 µM (inactive),47.5 µM (inactive),52.5 µM (inactive),77.1 µM (inactive),> 100 µM (inactive),24.8 µM (inactive),46.3 µM (inactive),66.4 µM (inactive),16.7 µM (inactive),40.2 µM (inactive),44.5 µM (inactive),> 100 µM (inactive),50.9 µM (inactive)
CC(=O)N(CN1C(=O)CCC1C(=O)O)c1cccc(O)c1 (stereo not drawn),> 100 µM (inactive),> 100 µM (inactive),> 100 µM (inactive),> 100,> 100 µM (inactive),> 100 µM (inactive),> 100 µM (inactive),> 100 µM (inactive),> 100 µM (inactive),> 100 µM (inactive),> 100 µM (inactive),> 100 µM (inactive),> 100 µM (inactive),> 100 µM (inactive),–,> 100 µM (inactive),> 100 µM (inactive),> 100 µM (inactive),> 100 µM (inactive)
O=C(OC1C(Oc2ccccc2COC(=O)C2(O)C=CCCC2=O)OC(CO)C(O)C1O)c1ccccc1 (stereo not drawn),25.3 µM (inactive),–,45.9 µM (inactive),28.2,42 µM (inactive),0.094 µM (active),60.4 µM (inactive),25.6 µM (inactive),27.4 µM (inactive),27 µM (inactive),23.8 µM (inactive),–,41.2 µM (inactive),13.5 µM (inactive),–,–,68.4 µM (inactive),33.9 µM (inactive),46.5 µM (inactive)
COC(=O)[C@H](Cc1ccc(OC(C)(C)C)cc1)N[C@H](C)C(=O)N[C@@H](Cc1ccccc1)C(=O)OCc1ccccc1,54.3 µM (inactive),> 100 µM (inactive),35.6 µM (inactive),> 100,> 100 µM (inactive),> 100 µM (inactive),47.2 µM (inactive),> 100 µM (inactive),83.9 µM (inactive),> 100 µM (inactive),25.8 µM (inactive),86.3 µM (inactive),> 100 µM (inactive),37.8 µM (inactive),> 100 µM (inactive),> 100 µM (inactive),> 100 µM (inactive),> 100 µM (inactive),> 100 µM (inactive)
CC(C)(C)C(=O)CC(=O)C(F)(F)C(F)(F)C(F)(F)F,17 µM (inactive),–,18.3 µM (inactive),14.3,18.3 µM (inactive),14.7 µM (inactive),17.1 µM (inactive),11.9 µM (inactive),16.7 µM (inactive),15.4 µM (inactive),27.8 µM (inactive),14.1 µM (inactive),13.2 µM (inactive),11.1 µM (inactive),17.3 µM (inactive),17.5 µM (inactive),14.1 µM (inactive),20.9 µM (inactive),15.3 µM (inactive)
CCCN(CCC)C(=O)c1c(Cl)c2cccnc2n2c(C)cnc12,> 100 µM (inactive),69.5 µM (inactive),48.3 µM (inactive),–,> 100 µM (inactive),73.3 µM (inactive),> 100 µM (inactive),64.4 µM (inactive),51.1 µM (inactive),23.6 µM (inactive),> 100 µM (inactive),47.9 µM (inactive),> 100 µM (inactive),39.5 µM (inactive),35 µM (inactive),> 100 µM (inactive),> 100 µM (inactive),58.9 µM (inactive),95.3 µM (inactive)
CC1(C)OP(=O)(c2ccccc2)C=C1Sc1ccc([N+](=O)[O-])cc1[N+](=O)[O-] (stereo not drawn),38.6 µM (inactive),> 100 µM (inactive),36.6 µM (inactive),65.5,> 100 µM (inactive),91.4 µM (inactive),45.6 µM (inactive),> 100 µM (inactive),98.2 µM (inactive),71.8 µM (inactive),> 100 µM (inactive),30.4 µM (inactive),29.7 µM (inactive),–,–,95.9 µM (inactive),85.1 µM (inactive),> 100 µM (inactive),> 100 µM (inactive)
Nc1ncnc2c1ncn2C1OC(CO)C2OC21 (stereo not drawn),> 10 µM (inactive),> 100 µM (inactive),> 100 µM (inactive),> 10,> 100 µM (inactive),> 100 µM (inactive),> 100 µM (inactive),> 100 µM (inactive),> 100 µM (inactive),> 10 µM (inactive),> 100 µM (inactive),> 10 µM (inactive),> 100 µM (inactive),> 100 µM (inactive),> 100 µM (inactive),> 100 µM (inactive),> 100 µM (inactive),> 100 µM (inactive),> 100 µM (inactive)
O=C1CCC2(CC1CC[S+]([O-])c1ccccc1)OCCO2 (stereo not drawn),> 100 µM (inactive),> 100 µM (inactive),–,> 100,> 100 µM (inactive),> 100 µM (inactive),> 100 µM (inactive),> 100 µM (inactive),> 100 µM (inactive),> 100 µM (inactive),> 100 µM (inactive),> 100 µM (inactive),> 100 µM (inactive),> 100 µM (inactive),> 100 µM (inactive),> 100 µM (inactive),> 100 µM (inactive),> 100 µM (inactive),> 100 µM (inactive)
NNc1ncc2c(n1)-c1ccccc1OC2,64.3 µM (inactive),–,36.5 µM (inactive),29.9,35.6 µM (inactive),24.7 µM (inactive),43.9 µM (inactive),31 µM (inactive),54.1 µM (inactive),> 100 µM (inactive),75.2 µM (inactive),22.2 µM (inactive),67.1 µM (inactive),38.2 µM (inactive),> 100 µM (inactive),36.1 µM (inactive),> 100 µM (inactive),57.1 µM (inactive),> 100 µM (inactive)
